Measurements reported in patent publication US10800816B2 (Baxalta GmbH, priority 2012, dated 2020).
Bridges are numbered along the chain shown (N, C = ends). [ ]: non-standard residue; d: D form. Aib = CC(C)(N)C(=O)O; Sar = CNCC(=O)O

Experiments:
[1] = FIGURE 78M
[2] = system: TFPI; test: Extrinsic Tenase Inhibition assay | % Inhibition @ 2.5μM

Compound	24 h Human Plasma Stability | Mean Remaining [%] [1]	Extrinsic Tenase Inhibition assay | % Inhibition @ […] [2]
CC[C@H](NC(=O)[C@H](Cc1c[nH]cn1)NC(=O)[C@@H](NC(=O)[C@H](CC(N)=O)NC(=O)[C@H]1CCCN1C(=O)[C@H](CCCCN)NC(=O)[C@H](CO)NC(=O)[C@H](CCC(N)=O)NC(=O)[C@H](Cc1ccccc1)NC(C)=O)C(C)C)C(=O)N[C@@H](CC(=O)O)C(=O)NCC(=O)N[C@@H](Cc1ccc(O)cc1)C(=O)N[C@@H](Cc1ccccc1)C(=O)N[C@@H](CCC(=O)O)C(=O)N[C@@H](CCCNC(=N)N)C(=O)N[C@@H](CC(C)C)C(=O)NC(C)(C)C(=O)N[C@@H](C)C(=O)N[C@@H](CCCCN)C(=O)N[C@@H](CC(C)C)C(=O)N[C@@H](CSC1CC(=O)N(CC)C1=O)C(N)=O (stereo partly drawn) [JBT00002381, Ac-FQSKpNVH-Abu-DGYFERL-Aib-AKLC(NEM)-NH2]	17.30%	
CCN1C(=O)CC(SC[C@H](NC(=O)[C@H](CC(C)C)NC(=O)[C@H](CCCCN)NC(=O)[C@H](C)NC(=O)C(C)(C)NC(=O)[C@H](CC(C)C)NC(=O)[C@H](CCCNC(=N)N)NC(=O)[C@H](CCC(=O)O)NC(=O)[C@H](Cc2ccccc2)NC(=O)[C@H](Cc2ccc(O)cc2)NC(=O)CNC(=O)[C@H](CC(=O)O)NC(=O)[C@@H](NC(=O)[C@H](Cc2c[nH]cn2)NC(=O)[C@@H](NC(=O)[C@H](CC(N)=O)NC(=O)[C@H]2CCCN2C(=O)[C@H](CCCCN)NC(=O)[C@H](CO)NC(=O)[C@H](CCC(N)=O)NC(=O)[C@H](Cc2ccccc2)NC(C)=O)C(C)C)C2CCCC2)C(N)=O)C1=O (stereo partly drawn) [JBT00002383, Ac-FQSKpNVH-Cpg-DGYFERL-Aib-AKLC(NEM)-NH2]	31.00%	
CCN1C(=O)CC(SC[C@H](NC(=O)[C@H](CC(C)C)NC(=O)[C@H](CCCCN)NC(=O)[C@H](C)NC(=O)C(C)(C)NC(=O)[C@H](CC(C)C)NC(=O)[C@H](CCCNC(=N)N)NC(=O)[C@H](CCC(=O)O)NC(=O)[C@H](Cc2ccccc2)NC(=O)[C@H](Cc2ccc(O)cc2)NC(=O)CNC(=O)[C@H](CC(=O)O)NC(=O)C(C)(C)NC(=O)[C@H](Cc2c[nH]cn2)NC(=O)[C@@H](NC(=O)[C@H](CC(N)=O)NC(=O)[C@H]2CCCN2C(=O)[C@H](CCCCN)NC(=O)[C@H](CO)NC(=O)[C@H](CCC(N)=O)NC(=O)[C@H](Cc2ccccc2)NC(C)=O)C(C)C)C(N)=O)C1=O (stereo partly drawn) [JBT00002385, Ac-FQSKpNVH-Aib-DGYFERL-Aib-AKLC(NEM)-NH2]	51.50%	
CCN1C(=O)CC(SC[C@H](NC(=O)[C@H](CC(C)C)NC(=O)[C@H](CCCCN)NC(=O)[C@H](C)NC(=O)C(C)(C)NC(=O)[C@H](CC(C)C)NC(=O)[C@H](CCCNC(=N)N)NC(=O)[C@H](CCC(=O)O)NC(=O)[C@H](Cc2ccccc2)NC(=O)[C@H](Cc2ccc(O)cc2)NC(=O)CNC(=O)[C@H](CC(=O)O)NC(=O)[C@H](CC(F)(F)F)NC(=O)[C@H](Cc2c[nH]cn2)NC(=O)[C@@H](NC(=O)[C@H](CC(N)=O)NC(=O)[C@H]2CCCN2C(=O)[C@H](CCCCN)NC(=O)[C@H](CO)NC(=O)[C@H](CCC(N)=O)NC(=O)[C@H](Cc2ccccc2)NC(C)=O)C(C)C)C(N)=O)C1=O (stereo partly drawn) [JBT00002382, Ac-FQSKpNVH-(L-2-Amino-4,4,4-trifluorobutyric acid)- DGYFERL-Aib-AKLC(NEM)-NH2]	20.50%	
Ac-FQSK-Nmg-NVFVTGYFERL-Aib-AKL-NH2 (SEQ ID NO: 165) (Ac-FQSK[Sar]NVFVTGYFERL[Aib]AKL-NH2; SMILES CC(=O)N[C@@H](Cc1ccccc1)C(=O)N[C@@H](CCC(N)=O)C(=O)N[C@@H](CO)C(=O)N[C@@H](CCCCN)C(=O)N(C)CC(=O)N[C@@H](CC(N)=O)C(=O)N[C@H](C(=O)N[C@@H](Cc1ccccc1)C(=O)N[C@H](C(=O)N[C@H](C(=O)NCC(=O)N[C@@H](Cc1ccc(O)cc1)C(=O)N[C@@H](Cc1ccccc1)C(=O)N[C@@H](CCC(=O)O)C(=O)N[C@@H](CCCNC(=N)N)C(=O)N[C@@H](CC(C)C)C(=O)NC(C)(C)C(=O)N[C@@H](C)C(=O)N[C@@H](CCCCN)C(=O)N[C@@H](CC(C)C)C(N)=O)[C@@H](C)O)C(C)C)C(C)C) [JBT1585]		48%
Ac-[CFQSKGNVFVDGYFERLC]AKL-NH2 (SEQ ID NO: 402) (Ac-CFQSKGNVFVDGYFERLCAKL-NH2; disulfide 1-18) [JBT1592]		11%
